Data on 7 compounds can be found in ChEMBL document CHEMBL1201862, “PubChem BioAssay data set” (2004).

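Five compound concentrations were applied to cells in 96-well plates for 48 hours; endpoints were derived by simple linear interpolation of the resulting dose-response curve. Abbreviation: GI50, concentration required for 50% inhibition of growth.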 Active and inactive are the calls of the source. Cut-off read from the data, not from the text of the source: active = GI50 up to about 1.1 µM and inactive = higher. Bounds are passed on as bounds.

Some test systems named below: OVCAR-5; A498; Hs-578T; SN12C; U-251; 786-0; SF-539; PC-3; KM12; RPMI-8226; M14; HT-29; NCI-H23; SK-MEL-5; NCI/ADR-RES; CCRF-CEM; MDA-MB-231; Malme-3M; UO-31; HL-60.
Holding throughout (test): NCI-60 cell line screen, 48 h

Regarding `C=CC(C)(C)n1cc(C2=C(O)C(=O)C(c3cn(C(C)(C)C=C)c4ccccc34)=C(O)C2=O)c2ccccc21`, the GI50 with OVCAR-5 was 1.89 µM (inactive); with A498 it was 5.97 µM (inactive); with Hs-578T, 2.07 µM (inactive); in the experiment with SN12C it was 2.5 µM (inactive); with U-251, 2.35 µM (inactive); in the experiment on 786-0, 3.05 µM (inactive). Moreover, the GI50 was 1.59 µM (inactive) in the experiment on SF-539; 2.27 µM (inactive) in the experiment on PC-3; 3.37 µM (inactive) in the experiment with KM12; 4.44 µM (inactive) with RPMI-8226; 2.71 µM (inactive) in the experiment on M14; 3.74 µM (inactive) in the experiment with HT-29. The GI50 with NCI-H23 was 2.32 µM (inactive); in the experiment with SK-MEL-5 it was 2.08 µM (inactive); in the experiment on NCI/ADR-RES, 2.2 µM (inactive); with CCRF-CEM it was 5.25 µM (inactive); in the experiment on MDA-MB-231 it was 3.71 µM (inactive); in the experiment on Malme-3M it was 2.54 µM (inactive). Also, the GI50 is 1.67 µM (inactive) with UO-31 and 5.09 µM (inactive) in the experiment with HL-60.
Take `CCOC(=O)c1sc2c(c1OC(=O)c1ccc(Cl)cc1Cl)c(=O)n(-c1ccccc1)c(=S)n2-c1ccccc1`: the GI50 with OVCAR-5 was 35.4 µM (inactive); in the experiment on A498 it was 5.08 µM (inactive); in the experiment with Hs-578T, 7.48 µM (inactive); in the experiment on SN12C, 4.22 µM (inactive); in the experiment on U-251, 5.21 µM (inactive); in the experiment on 786-0, 25.6 µM (inactive). Also, the GI50 is 25.9 µM (inactive) with SF-539; 7.08 µM (inactive) in the experiment with PC-3; 5.73 µM (inactive) in the experiment on KM12; 4.58 µM (inactive) in the experiment on RPMI-8226; 29.4 µM (inactive) in the experiment on M14; 8.89 µM (inactive) with HT-29. Besides, the GI50 in the experiment with NCI-H23 is 4.91 µM (inactive); in the experiment on SK-MEL-5, 11.7 µM (inactive); in the experiment with NCI/ADR-RES it was 9.66 µM (inactive); in the experiment with CCRF-CEM it was 3.27 µM (inactive); in the experiment on MDA-MB-231, 20.9 µM (inactive); in the experiment with Malme-3M, 22.9 µM (inactive). Also, the figures for the GI50 in the experiment on UO-31 and in the experiment on HL-60 were 13.4 µM (inactive) and 4.29 µM (inactive), respectively.
In the case of `CC[C@@]1(O)C(=O)OCc2c1cc1n(c2=O)Cc2c-1nc1ccccc1c2/C=N\NC(=O)CN`, the GI50 is 3.24 µM (inactive) in the experiment with OVCAR-5; 0.488 µM (active) in the experiment on A498; > 40.5 µM (inactive) in the experiment with Hs-578T; 0.0458 µM (active) in the experiment with SN12C; 0.135 µM (active) in the experiment on U-251; 0.0908 µM (active) with 786-0. For the same compound, the GI50 was 0.0258 µM (active) in the experiment with SF-539; 4.73 µM (inactive) in the experiment on PC-3; 6.14 µM (inactive) with KM12; 0.147 µM (active) in the experiment with RPMI-8226; 0.126 µM (active) in the experiment on M14; 1.68 µM (inactive) in the experiment with HT-29. The GI50 in the experiment with NCI-H23 is 0.0676 µM (active); in the experiment on SK-MEL-5, 0.252 µM (active); in the experiment on NCI/ADR-RES, 0.726 µM (active); in the experiment on CCRF-CEM, < 0.0163 µM (active); with MDA-MB-231, 23 µM (inactive); in the experiment on Malme-3M, 2.76 µM (inactive). Also, the values for the GI50 in the experiment on UO-31 and with HL-60 were 0.33 µM (active) and 0.145 µM (active), respectively.
With `C=CCN(c1cc(OC)c2[nH]c(C(=O)OCC)c(C)c2c1[N+](=O)[O-])S(C)(=O)=O`, the GI50 with OVCAR-5 is 29.3 µM (inactive); in the experiment with A498, 25.8 µM (inactive); in the experiment on Hs-578T it was 17.8 µM (inactive); in the experiment with SN12C it was 19.6 µM (inactive); with U-251 it was 16.1 µM (inactive); with 786-0, 19 µM (inactive). For the same compound, the GI50 in the experiment on SF-539 was 33.6 µM (inactive); in the experiment on PC-3, 18 µM (inactive); in the experiment with KM12 it was 23.5 µM (inactive); in the experiment with RPMI-8226, 14.6 µM (inactive); with M14, 30.8 µM (inactive); with HT-29, 18.2 µM (inactive). Moreover, the GI50 with NCI-H23 is 28.4 µM (inactive); with SK-MEL-5, 16.1 µM (inactive); in the experiment with NCI/ADR-RES, 23.6 µM (inactive); in the experiment with CCRF-CEM, 26.3 µM (inactive); with MDA-MB-231 it was 11 µM (inactive); with Malme-3M, 15.7 µM (inactive). The GI50 with UO-31 was 21.5 µM (inactive); with HL-60 it was 15.8 µM (inactive).
As for `O=C1C2C(c3ccccc3)NC(c3ccccc3)C1C(c1ccccc1)NC2c1ccccc1` (stereo not given), the GI50 in the experiment with OVCAR-5, in the experiment with A498, in the experiment with Hs-578T, in the experiment with SN12C, in the experiment on U-251 and in the experiment with 786-0 was > 100 µM (inactive) each time. Also, the GI50 in the experiment on SF-539, in the experiment on PC-3, in the experiment on KM12, in the experiment with RPMI-8226, with M14 and in the experiment on HT-29 was > 100 µM (inactive) each time. Moreover, the GI50 in the experiment with NCI-H23, with SK-MEL-5, in the experiment with NCI/ADR-RES, with CCRF-CEM, in the experiment on MDA-MB-231 and in the experiment with Malme-3M was > 100 µM (inactive) throughout. For the same compound, the GI50 in the experiment with UO-31 and in the experiment with HL-60 was > 100 µM (inactive) throughout.
Regarding `Cc1nn(-c2ccccn2)c2c1C(SC#N)=C(C=O)CC2`, the GI50 is 4.85 µM (inactive) in the experiment on OVCAR-5; 2.29 µM (inactive) in the experiment with A498; 33.7 µM (inactive) with Hs-578T; 18.5 µM (inactive) in the experiment on SN12C; 15.5 µM (inactive) with U-251; 12.4 µM (inactive) in the experiment on 786-0. For the same compound, the GI50 was 19.1 µM (inactive) in the experiment with SF-539; 19.7 µM (inactive) in the experiment with PC-3; 16.7 µM (inactive) in the experiment with KM12; 13.3 µM (inactive) in the experiment with RPMI-8226; 15.8 µM (inactive) with M14; 16.1 µM (inactive) in the experiment with HT-29. Besides, the GI50 is 16.4 µM (inactive) in the experiment on NCI-H23; 15 µM (inactive) with SK-MEL-5; 20.1 µM (inactive) in the experiment with NCI/ADR-RES; 2.12 µM (inactive) in the experiment with CCRF-CEM; 18 µM (inactive) in the experiment on MDA-MB-231; 18.3 µM (inactive) with Malme-3M. Moreover, the GI50 in the experiment with UO-31 was 14.6 µM (inactive); in the experiment with HL-60 it was 3.55 µM (inactive).
As to `C/C(=N\NC(=S)N1CCCCCC1)c1ccccn1`, the GI50 in the experiment with OVCAR-5 is 0.897 µM (active); in the experiment on A498 it was 0.697 µM (active); in the experiment on Hs-578T it was 0.322 µM (active); in the experiment with SN12C, 0.548 µM (active); with U-251, 0.00522 µM (active); with 786-0, 0.0352 µM (active). Also, the GI50 in the experiment with SF-539 is 0.0506 µM (active); in the experiment with PC-3 it was 0.011 µM (active); in the experiment on KM12 it was 0.0258 µM (active); in the experiment with RPMI-8226, 0.00405 µM (active); in the experiment with M14, 0.0266 µM (active); in the experiment on HT-29, < 0.001 µM (active). In addition, the GI50 is 0.00897 µM (active) in the experiment with NCI-H23; 0.00805 µM (active) in the experiment on SK-MEL-5; 0.01 µM (active) in the experiment on NCI/ADR-RES; 0.00383 µM (active) with CCRF-CEM; 0.0249 µM (active) in the experiment with MDA-MB-231; 0.0316 µM (active) with Malme-3M. Also, the GI50 in the experiment with UO-31 is 0.543 µM (active); in the experiment with HL-60, 0.0021 µM (active).
